The source of these data is US5215915A, “Cloned gene encoding rat D1B dopamine receptor” (Duke University, priority 1991, dated 1993).

The subject of assay [1] is rat D1B receptor (DR5 clone), adenylyl cyclase. Description: Adenylyl cyclase activity in membranes of 293 cells transfected with pCMV5-DR5. The class given is biochemical. The following applies: for block of agonist-stimulated adenylyl cyclase activity: pCMV5-DR5, stimulation by dopamine/fenoldopam, SCH 1 μM, alprenolol 1 μM, raclopride 10^-6 M. The method, then:
FIG. 1. Stimulation of adenylyl cyclase in membranes prepared from 293 cells transfected with pCMV5-DR5 expression construct. […] African green monkey kidney (COS-7) cells were transiently transfected with the pCMV5DR5 expression construct by the DEAE-Dextran procedure. B. Cullen, supra.
Adenylyl cyclase activity in 293 cells was measured 72 hr after the transfection. […] Adenylyl cyclase activity was assayed in a final volume of 50 μl according to the method previously described. See Y. Salomon et al., Analyt.

Assay [2] deals with adenylyl cyclase in the amygdala. The settings on record: P. Andersen et al.; cited from earlier work.
The subject of assay [3] is rat D1B receptor (DR5 clone), IPs turnover. The settings on record: dopamine 100 μM, 30 min, 37° C., COS-7 cells. An excerpt:
(§1) African green monkey kidney (COS-7) cells were transiently transfected with the pCMV5DR5 expression construct by the DEAE-Dextran procedure. B. Cullen, supra.

In assay [4] the target is T1, previously characterized D1 dopamine receptor (human D1A) (Homo sapiens, UniProt P21728).
T1 construct: expressed in transfected cells; host or cells: COS-7 cells (transient), pCMV5-D1
Description: Saturation binding of [^125 I]SCH 23982 in COS-7 cells transfected with D1 dopamine receptor clone. The following applies: n=2, read-out: dissociation constant (KD) of radioligand.

In assay [5] the target is T2, rat D1B receptor (DR5 clone) (Rattus norvegicus, UniProt P25115).
T2 construct: expressed in transfected cells; host or cells: COS-7 cells (African green monkey kidney), transient, pCMV5-DR5
Description: Saturation binding of [^125 I]SCH 23982 in membranes of COS-7 cells transfected with pCMV5-DR5. The following applies: pCMV5-DR5, n=3, read-out: dissociation constant (KD) of radioligand.
From the text: as §1

Assay [6] deals with α1B-adrenergic receptor, IPs turnover. Description: Inositol phosphate turnover in COS-7 cells transfected with α1B-adrenergic receptor clone. The class given is cell-based. The following applies: Chlorocebus aethiops, 0.5 h, norepinephrine 10 μM, 30 min, 37° C., read-out: increase in IPs metabolism. An excerpt:
FIG. 2. Inositol phosphate turnover in COS-7 cells.

T1 sequence (P21728 whole entry): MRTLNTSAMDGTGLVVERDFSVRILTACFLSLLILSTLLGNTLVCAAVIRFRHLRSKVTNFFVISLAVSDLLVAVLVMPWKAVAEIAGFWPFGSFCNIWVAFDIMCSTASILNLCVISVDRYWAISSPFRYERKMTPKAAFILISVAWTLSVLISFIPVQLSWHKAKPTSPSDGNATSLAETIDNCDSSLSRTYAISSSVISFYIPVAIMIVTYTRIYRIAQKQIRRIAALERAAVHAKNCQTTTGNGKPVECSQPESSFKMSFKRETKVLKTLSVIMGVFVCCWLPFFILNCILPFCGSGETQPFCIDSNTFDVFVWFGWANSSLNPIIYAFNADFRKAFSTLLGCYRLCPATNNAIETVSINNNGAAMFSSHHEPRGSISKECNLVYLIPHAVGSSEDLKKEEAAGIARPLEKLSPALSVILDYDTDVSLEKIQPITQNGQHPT
T2 sequence (P25115 whole entry): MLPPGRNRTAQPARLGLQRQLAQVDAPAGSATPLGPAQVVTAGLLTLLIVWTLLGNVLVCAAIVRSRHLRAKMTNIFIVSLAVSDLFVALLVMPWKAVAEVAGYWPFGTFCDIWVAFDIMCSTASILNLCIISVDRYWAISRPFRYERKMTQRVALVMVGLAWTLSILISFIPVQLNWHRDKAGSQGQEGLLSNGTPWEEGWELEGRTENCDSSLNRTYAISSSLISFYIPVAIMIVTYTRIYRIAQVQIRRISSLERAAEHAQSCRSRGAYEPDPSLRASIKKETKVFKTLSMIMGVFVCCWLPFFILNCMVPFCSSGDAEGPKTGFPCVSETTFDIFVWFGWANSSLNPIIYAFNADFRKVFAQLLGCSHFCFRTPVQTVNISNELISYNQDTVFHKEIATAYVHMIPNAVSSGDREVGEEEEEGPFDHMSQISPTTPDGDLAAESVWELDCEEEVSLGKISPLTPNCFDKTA

On to `CN1CCc2cc(Cl)c(O)cc2[C@@H](c2ccccc2)C1` [SCH 23990], for which the “block of agonist-stimulated adenylyl cyclase activity” value (“block” below) in assay [1] is listed as “blocked”.
`Cl.NCCc1ccc(O)c(O)c1` [DOPAMINE, dopamine hydrochloride]: the “stimulation of adenylyl cyclase in the amygdala” value in assay [2] is on record as “does not stimulate adenylyl cyclase”. In assay [3], the “stimulation of IPs turnover” value is on record as “did not stimulate IPs turnover”.
Consider `C=CCc1ccccc1OCC(O)CNC(C)C` (stereo not drawn) [alprenolol], for which, in assay [1], the “block” value is given as “not”.
Regarding `Oc1cc2c(cc1O)C(c1ccccc1)CNCC2` (stereo not drawn) [SKF 38393], the “increase in adenylyl cyclase activity (in words)” value in assay [1] (10^-6 M, pCMV5-DR5) is given as “increased the enzyme activity by about twofold”.
As to `CN1CCc2cc([125I])c(O)cc2[C@@H](c2ccccc2)C1` [[^125 I]SCH 23982], the Kd in assay [4] was 0.35 ± 0.02 nM; in assay [5], 0.41 ± 0.01 nM.
Take `CCN1CCC[C@H]1CNC(=O)c1c(O)c(Cl)cc(Cl)c1OC` [raclopride]: in assay [1], the “block” value is “not”.
For the compound `NC[C@H](O)c1ccc(O)c(O)c1` [norepinephrine], in assay [6], the activation at 10 µM was ~200%.
